IC50 data for 17 molecules are collected here from patent publication US12570655B2, “Cysteine covalent modifiers of AKT1 and uses thereof” (Terremoto Biosciences, Inc., priority 2023, dated 2026).

Like-named read-outs stand apart in the source and are kept apart here.

Format in all cases: cell-based
One assay has as its target T1, AKT1 E17K (Homo sapiens, UniProt P31749, E17K).
T1 construct: expressed in transfected cells; host or cells: HEK293
Briefly: Live cell AKT1 E17K target engagement by NanoBRET competitive probe displacement. Particulars: HEK293 cells transfected with kinase-NanoLuciferase fusion, 2 h at 37° C. Summed up:
(§1)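 Steps: overnight transfection of HEK293 with kinase-NanoLuc plasmids; addition of compound dilutions and tracer (~EC50); 2 h incubation at 37 °C; substrate plus extracellular luciferase inhibitor; luminescence at 460 and 600 nm. IC50 values came from fitting the BRET ratio to a Hill equation.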

The next assay has as its target T2, AKT1 WT (Homo sapiens, UniProt P31749).
T2 construct: expressed in transfected cells; host or cells: HEK293
Put plainly: Live cell AKT1 WT target engagement by NanoBRET competitive probe displacement. Particulars: HEK293 cells transfected with kinase-NanoLuciferase fusion, 2 h at 37° C. In short, it runs like this:
as §1

The target of the next assay is T3, AKT2 (Homo sapiens, UniProt P31751).
T3 construct: expressed in transfected cells; host or cells: HEK293
T3 sequence (P31751 whole entry): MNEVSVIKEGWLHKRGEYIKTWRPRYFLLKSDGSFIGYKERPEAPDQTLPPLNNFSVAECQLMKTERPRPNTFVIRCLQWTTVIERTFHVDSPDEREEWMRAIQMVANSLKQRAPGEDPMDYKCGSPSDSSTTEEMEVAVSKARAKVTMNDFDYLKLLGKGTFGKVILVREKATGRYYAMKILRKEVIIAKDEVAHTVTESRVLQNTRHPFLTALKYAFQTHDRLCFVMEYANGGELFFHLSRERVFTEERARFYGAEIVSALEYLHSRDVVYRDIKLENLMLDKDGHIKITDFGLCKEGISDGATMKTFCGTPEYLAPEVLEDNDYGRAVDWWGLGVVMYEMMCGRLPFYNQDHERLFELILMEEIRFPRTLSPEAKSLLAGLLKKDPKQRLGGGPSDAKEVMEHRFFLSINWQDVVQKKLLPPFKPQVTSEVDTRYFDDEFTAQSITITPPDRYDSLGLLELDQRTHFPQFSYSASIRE
Briefly: Live cell AKT2 target engagement by NanoBRET competitive probe displacement. Particulars: HEK293 cells transfected with kinase-NanoLuciferase fusion, 2 h at 37° C. In short, it runs like this:
as §1
In general terms: In BRET a luciferase serves as donor, and the signal depends on an acceptor being close.

For assay [1], the system named is LAPC4 prostate cancer cells. Put plainly: Antiproliferative effects in LAPC4 cells (CellTiter Glo). To be noted: LAPC4 cells (AKT1 E17K allele), read-out: LAPC4 proliferation IC50. Summed up:
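Growth inhibition is gauged by intracellular ATP content, measured with CellTiter Glo 72 h after compound addition to 1,000 seeded cells per well. IC50 derives from a Hill equation fit.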
A general note: In ATP-based viability assays light output follows the ATP content of the culture.

T2 sequence (P31749 whole entry): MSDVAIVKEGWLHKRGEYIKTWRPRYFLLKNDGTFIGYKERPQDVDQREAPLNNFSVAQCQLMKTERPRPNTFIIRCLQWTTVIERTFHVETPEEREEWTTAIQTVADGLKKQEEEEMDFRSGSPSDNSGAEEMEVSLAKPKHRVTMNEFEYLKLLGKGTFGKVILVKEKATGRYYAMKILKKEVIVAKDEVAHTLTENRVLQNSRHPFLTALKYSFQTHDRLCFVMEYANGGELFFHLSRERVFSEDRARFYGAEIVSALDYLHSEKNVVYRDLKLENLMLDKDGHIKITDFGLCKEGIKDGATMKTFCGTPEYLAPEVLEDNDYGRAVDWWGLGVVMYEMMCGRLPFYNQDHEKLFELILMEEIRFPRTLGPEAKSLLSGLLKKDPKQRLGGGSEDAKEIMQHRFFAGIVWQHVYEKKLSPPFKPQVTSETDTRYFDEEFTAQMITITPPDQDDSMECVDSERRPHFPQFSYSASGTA
T1 sequence (P31749 whole entry E17K): as the sequence (P31749 whole entry) above, with E17K counted along it

`C=CC(=O)N1C[C@H]2C[C@@H](C1)C2N[C@H]1CCc2cc(-n3c(-c4cccnc4N)nc4ccc(-n5cccn5)nc43)ccc21` (single isomer, unassigned) [Example 59, 1-((1R,5S,6*)-6-(((S)-5-(2-(2-aminopyridin-3-yl)-5-(1H-pyrazol-1-yl)-3H-imidazo[4,5-b]pyridin-3-yl)-2,3-dihydro-1H-inden-1-yl)amino)-3-azabicyclo[3.1.1]heptan-3-yl)prop-2-en-1-one]: the IC50 at AKT1 E17K was 242 nM; on AKT1 WT, 44.8 nM; on AKT2, 648 nM; in assay [1] (72 h) it was 377 nM.
Consider `C=CC(=O)N1CCC(N[C@H]2CCc3cc(-n4c(-c5cccnc5N)nc5ccc(N6CC[C@@H](F)C6)nc54)ccc32)CC1` [Example 194, 1-(4-{[(1S)-5-[2-(2-aminopyridin-3-yl)-5-[(3R)-3-fluoropyrrolidin-1-yl]imidazo[4,5-b]pyridin-3-yl]-2,3-dihydro-1H-inden-1-yl]amino}piperidin-1-yl)prop-2-en-1-one], for which the IC50 at AKT1 E17K amounted to 13.8 nM; at AKT1 WT, 446 nM; at AKT2 it was 142 nM; in assay [1] (Homo sapiens, LAPC4, 72 h), 310 nM.
For the molecule `C=CC(=O)N1CCC(N[C@@H]2c3ccc(-n4c(-c5cccnc5N)nc5ccc(-n6cccn6)nc54)cc3CC2F)CC1C(F)F` (single isomer, unassigned) [Example 302, 1-((2*,4*)-4-(((1R,2*)-5-(2-(2-aminopyridin-3-yl)-5-(1H-pyrazol-1-yl)-3H-imidazo[4,5-b]pyridin-3-yl)-2-fluoro-2,3-dihydro-1H-inden-1-yl)amino)-2-(difluoromethyl)piperidin-1-yl)prop-2-en-1-one], the IC50 at AKT1 E17K came to 16.9 nM; at AKT1 WT, 82.1 nM; at AKT2, 33.3 nM; in assay [1] (72 h), 129 nM.
In the case of `C=CC(=O)N1CCC(N[C@H]2CCc3cc(-n4c(-c5cccnc5N)nc5ccc(-c6nnc(C)s6)nc54)ccc32)CC1` [Example 257, (S)-1-(4-((5-(2-(2-aminopyridin-3-yl)-5-(5-methyl-1,3,4-thiadiazol-2-yl)-3H-imidazo[4,5-b]pyridin-3-yl)-2,3-dihydro-1H-inden-1-yl)amino)piperidin-1-yl)prop-2-en-1-one], the IC50 on AKT1 E17K was determined as 13.8 nM; at AKT1 WT it was 432 nM; at AKT2, 73 nM; in assay [1] (Homo sapiens, LAPC4, 72 h) it was 103 nM.
On to `C=CC(=O)N1CCC(N[C@H]2CCc3cc(-n4c(-c5cccnc5N)nc5ccc(N6CCOCC6)nc54)ccc32)CC1` [Example 86, (S)-1-(4-((5-(2-(2-aminopyridin-3-yl)-5-morpholino-3H-imidazo[4,5-b]pyridin-3-yl)-2,3-dihydro-1H-inden-1-yl)amino)piperidin-1-yl)prop-2-en-1-one], for which the IC50 is 153 nM on AKT1 E17K; 13.7 nM at AKT1 WT; 584 nM at AKT2; 180 nM in assay [1] (Homo sapiens, LAPC4, 72 h).
`C=CC(=O)N1CC2(CCC(N[C@H]3CCc4cc(-n5c(-c6cccnc6N)nc6ccc(-n7cccn7)nc65)ccc43)C2)C1` (single isomer, unassigned) [Example 91, 1-((*)-6-(((S)-5-(2-(2-aminopyridin-3-yl)-5-(1H-pyrazol-1-yl)-3H-imidazo[4,5-b]pyridin-3-yl)-2,3-dihydro-1H-inden-1-yl)amino)-2-azaspiro[3.4]octan-2-yl)prop-2-en-1-one]: the IC50 on AKT1 E17K was found to be 116 nM; at AKT1 WT it was 36.6 nM; at AKT2, 558 nM; in assay [1] (72 h), 351 nM.
As to `C=CC(=O)N1CCN(N[C@@H]2CCc3cc(-n4c(-c5cccnc5N)nc5ccc(C6CC6)nc54)ccc32)CC1` [Example 350], the IC50 at AKT1 E17K came out at 72.7 nM; at AKT1 WT it was 2510 nM; at AKT2 it was 416 nM; in assay [1] (Homo sapiens, LAPC4, 72 h), 1090 nM.
`C=CC(=O)N1CCC(N[C@H]2CCc3cc(-n4c(-c5cccnc5N)nc5ccc(-n6cccn6)nc54)ccc32)C(O)C1` (single isomer, unassigned) [Example 139, 1-[(3*,4*)-4-{[(1S)-5-[2-(2-aminopyridin-3-yl)-5-(pyrazol-1-yl)imidazo[4,5-b]pyridin-3-yl]-2,3-dihydro-1H-inden-1-yl]amino}-3-hydroxypiperidin-1-yl]prop-2-en-1-one]: the IC50 came out at 29.7 nM on AKT1 E17K, 13.5 nM on AKT1 WT, 114 nM at AKT2 and 41.9 nM in assay [1] (72 h).
Take `C=CC(=O)N1CCC(N[C@H]2CCc3cc(-n4c(-c5cccnc5N)nc5ccc(-n6ccc(F)n6)nc54)ccc32)CC1` [Example 49, (S)-1-(4-((5-(2-(2-aminopyridin-3-yl)-5-(3-fluoro-1H-pyrazol-1-yl)-3H-imidazo[4,5-b]pyridin-3-yl)-2,3-dihydro-1H-inden-1-yl)amino)piperidin-1-yl)prop-2-en-1-one]: the IC50 at AKT1 E17K is 146 nM; at AKT1 WT it was 50.9 nM; on AKT2 it was 980 nM; in assay [1] (Homo sapiens, LAPC4, 72 h), 406 nM.
Regarding `C=CC(=O)N1CCC(N[C@H]2CCc3cc(-n4c(-c5cccnc5N)nc5ccc(-n6cccn6)nc54)ccc32)C(F)(F)C1` (single isomer, unassigned) [Example 56, 1-((*)-4-(((S)-5-(2-(2-aminopyridin-3-yl)-5-(1H-pyrazol-1-yl)-3H-imidazo[4,5-b]pyridin-3-yl)-2,3-dihydro-1H-inden-1-yl)amino)-3,3-difluoropiperidin-1-yl)prop-2-en-1-one], the IC50 on AKT1 E17K came out at 23.9 nM; at AKT1 WT it was 6.71 nM; on AKT2 it was 104 nM; in assay [1] (72 h), 144 nM.
As for `C=CC(=O)N1CC2(CCC(N[C@H]3CCc4cc(-n5c(-c6cccnc6N)nc6ccc(-n7cccn7)nc65)ccc43)CC2)C1` [Example 32, 1-(7-{[(1S)-5-[2-(2-aminopyridin-3-yl)-5-(pyrazol-1-yl)imidazo[4,5-b]pyridin-3-yl]-2,3-dihydro-1H-inden-1-yl]amino}-2-azaspiro[3.5]nonan-2-yl)prop-2-en-1-one], the IC50 at AKT1 E17K was found to be 10.1 nM; on AKT1 WT it was 13.1 nM; at AKT2 it was 41.6 nM; in assay [1] (Homo sapiens, LAPC4, 72 h) it was 14.1 nM.
For `C=C(F)C(=O)N1CCc2c(C(=O)N[C@H]3CCc4cc(-n5c(-c6cccnc6N)nc6ccc(-n7cccn7)nc65)ccc43)cccc21` [Example 18, (S)-N-(5-(2-(2-aminopyridin-3-yl)-5-(1H-pyrazol-1-yl)-3H-imidazo[4,5-b]pyridin-3-yl)-2,3-dihydro-1H-inden-1-yl)-1-(2-fluoroacryloyl)indoline-4-carboxamide], the IC50 at AKT1 E17K is 243 nM; at AKT1 WT it was 61.5 nM; on AKT2 it was 208 nM; in assay [1] (Homo sapiens, LAPC4, 72 h), 1570 nM.
In the case of `C=CC(=O)N1CCC(N[C@@H]2c3ccc(-n4c(-c5cccnc5N)nc5ccc(-c6ccn(C(F)F)n6)nc54)cc3CC2F)CC1` (stereo partly drawn) [Example 310, 1-(4-(((1R,2*)-5-(2-(2-aminopyridin-3-yl)-5-(1-(difluoromethyl)-1H-pyrazol-3-yl)-3H-imidazo[4,5-b]pyridin-3-yl)-2-fluoro-2,3-dihydro-1H-inden-1-yl)amino)piperidin-1-yl)prop-2-en-1-one], the IC50 at AKT1 E17K came out at 34.5 nM; at AKT1 WT, 1480 nM; on AKT2, 277 nM; in assay [1] (72 h) it was 553 nM.
For `C=CC(=O)N1CCC(N[C@@H]2c3ccc(-n4c(-c5cccnc5N)nc5ccc(-n6ccc(F)n6)nc54)cc3CC2F)C[C@@H]1C` (single isomer, unassigned) [Example 270, 1-((2S,4*)-4-(((1R,2*)-5-(2-(2-aminopyridin-3-yl)-5-(3-fluoro-1H-pyrazol-1-yl)-3H-imidazo[4,5-b]pyridin-3-yl)-2-fluoro-2,3-dihydro-1H-inden-1-yl)amino)-2-methylpiperidin-1-yl)prop-2-en-1-one], the IC50 on AKT1 E17K is 7.21 nM; on AKT1 WT, 162 nM; at AKT2, 21 nM; in assay [1] (72 h) it was 76.3 nM.
With `C=CC(=O)N1CCC(N[C@H]2CCc3cc(-n4c(-c5cccnc5N)nc5ccc(C6CC6)nc54)ccc32)C(C)C1` (single isomer, unassigned) [Example 230, 1-((3*,4*)-4-(((S)-5-(2-(2-aminopyridin-3-yl)-5-cyclopropyl-3H-imidazo[4,5-b]pyridin-3-yl)-2,3-dihydro-1H-inden-1-yl)amino)-3-methylpiperidin-1-yl)prop-2-en-1-one], the IC50 on AKT1 E17K stood at 41.9 nM; at AKT1 WT it was 890 nM; on AKT2, 346 nM; in assay [1] (72 h), 600 nM.
In the case of `C=CC(=O)Nc1ccccc1C(=O)N[C@H]1CCc2cc(-n3c(-c4cccnc4N)nc4ccc(-n5cccn5)nc43)ccc21` [Example 1, (S)-2-acrylamido-N-(5-(2-(2-aminopyridin-3-yl)-5-(1H-pyrazol-1-yl)-3H-imidazo[4,5-b]pyridin-3-yl)-2,3-dihydro-1H-inden-1-yl)benzamide], the IC50 at AKT1 E17K turned out to be 12.2 nM; on AKT1 WT, 11.7 nM; at AKT2, 35 nM; in assay [1] (Homo sapiens, LAPC4, 72 h), 25.4 nM.
For `C=CC(=O)N1CCC(N[C@@H]2c3ccc(-n4c(-c5cccnc5N)nc5ccc(-n6cccn6)nc54)cc3CC2F)C(C)C1` (single isomer, unassigned) [Example 291, 1-[(3*,4*)-4-{[(1R,2*)-5-[2-(2-aminopyridin-3-yl)-5-(pyrazol-1-yl)imidazo[4,5-b]pyridin-3-yl]-2-fluoro-2,3-dihydro-1H-inden-1-yl]amino}-3-methylpiperidin-1-yl]prop-2-en-1-one], the IC50 on AKT1 E17K was 68.3 nM; on AKT1 WT, 1580 nM; at AKT2, 358 nM; in assay [1] (72 h) it was 1110 nM.
